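Where inhibition never reached the appropriate level, the endpoint shown equals the highest concentration tested. Otherwise, values were interpolated linearly from a five-concentration, 48-hour dose response in 96-well plates. TGI: total growth inhibition.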
Experiments:
Assay in all cases: NCI tumour cell line growth inhibition, 48 h
SNB-75 CNS = test system: SNB-75 CNS
NCI-H226 lung = test system: NCI-H226 lung
IGROV1 ovarian = test system: IGROV1 ovarian
OVCAR-4 ovarian = test system: OVCAR-4 ovarian
SNB-19 CNS = test system: SNB-19 CNS
HOP-18 NSCLC = test system: HOP-18 NSCLC
SN12K1 renal = test system: SN12K1 renal
MCF7 breast = test system: MCF7 breast
A498 renal = test system: A498 renal
LOX IMVI melanoma = test system: LOX IMVI melanoma
EKVX NSCLC = test system: EKVX NSCLC
SF-268 CNS = test system: SF-268 CNS
KM20L2 colon = test system: KM20L2 colon
U251 CNS = test system: U251 CNS
HOP-62 NSCLC = test system: HOP-62 NSCLC
MOLT-4 leukemia = test system: MOLT-4 leukemia
XF 498 CNS = test system: XF 498 CNS
KM12 colon = test system: KM12 colon
SK-OV-3 ovarian = test system: SK-OV-3 ovarian
UACC-62 melanoma = test system: UACC-62 melanoma
NCI-H23 lung = test system: NCI-H23 lung
OVCAR-5 ovarian = test system: OVCAR-5 ovarian
NCI/ADR-RES ovarian = test system: NCI/ADR-RES ovarian
HT29 colon = test system: HT29 colon
NCI-H460 lung = test system: NCI-H460 lung
HCC-2998 colon = test system: HCC-2998 colon
M19-MEL melanoma = test system: M19-MEL melanoma
P388/ADR leukemia = test system: P388/ADR leukemia
K-562 leukemia = test system: K-562 leukemia
DMS 273 small cell lung = test system: DMS 273 small cell lung
SK-MEL-5 melanoma = test system: SK-MEL-5 melanoma
HL-60(TB) leukemia = test system: HL-60(TB) leukemia
CAKI-1 renal = test system: CAKI-1 renal
DMS 114 small cell lung = test system: DMS 114 small cell lung
OVCAR-3 ovarian = test system: OVCAR-3 ovarian
CCRF-CEM leukemia = test system: CCRF-CEM leukemia
UACC-257 melanoma = test system: UACC-257 melanoma
NCI-H522 lung = test system: NCI-H522 lung
SNB-78 CNS = test system: SNB-78 CNS
HCT-116 colon = test system: HCT-116 colon
RPMI-8226 leukemia = test system: RPMI-8226 leukemia
SK-MEL-2 melanoma = test system: SK-MEL-2 melanoma
COLO 205 colon = test system: COLO 205 colon
UO-31 renal = test system: UO-31 renal
HOP-92 NSCLC = test system: HOP-92 NSCLC
MALME-3M melanoma = test system: MALME-3M melanoma
RXF 393 renal = test system: RXF 393 renal
SN12C renal = test system: SN12C renal
P388 leukemia = test system: P388 leukemia
SK-MEL-28 melanoma = test system: SK-MEL-28 melanoma
SW-620 colon = test system: SW-620 colon
A549 NSCLC = test system: A549 NSCLC
HCT-15 colon = test system: HCT-15 colon
OVCAR-8 ovarian = test system: OVCAR-8 ovarian
SF-539 CNS = test system: SF-539 CNS
DLD-1 colon = test system: DLD-1 colon
SF-295 CNS = test system: SF-295 CNS

Question: What does the source list for `O=NN1C(c2ccccc2)CCCC1c1ccccc1` (configuration not stated)?
Answer: TGI (SNB-75 CNS): > 77.6 µM; TGI (NCI-H226 lung): > 100 µM; TGI (IGROV1 ovarian): > 100 µM; TGI (OVCAR-4 ovarian): > 100 µM; TGI (SNB-19 CNS): > 100 µM; TGI (HOP-18 NSCLC): > 100 µM; TGI (SN12K1 renal): > 100 µM; TGI (MCF7 breast): > 100 µM; TGI (A498 renal): > 85.5 µM; TGI (LOX IMVI melanoma): > 100 µM; TGI (EKVX NSCLC): 99.1 µM; TGI (SF-268 CNS): > 100 µM; TGI (KM20L2 colon): > 100 µM; TGI (U251 CNS): > 100 µM; TGI (HOP-62 NSCLC): > 100 µM; TGI (MOLT-4 leukemia): > 100 µM; TGI (XF 498 CNS): 87.5 µM; TGI (KM12 colon): > 100 µM; TGI (SK-OV-3 ovarian): > 82.3 µM; TGI (UACC-62 melanoma): > 100 µM; TGI (NCI-H23 lung): > 100 µM; TGI (OVCAR-5 ovarian): > 100 µM; TGI (NCI/ADR-RES ovarian): > 100 µM; TGI (HT29 colon): > 54.8 µM; TGI (NCI-H460 lung): > 100 µM; TGI (HCC-2998 colon): > 100 µM; TGI (M19-MEL melanoma): > 100 µM; TGI (P388/ADR leukemia): > 100 µM; TGI (K-562 leukemia): > 100 µM; TGI (DMS 273 small cell lung): > 100 µM; TGI (SK-MEL-5 melanoma): > 100 µM; TGI (HL-60(TB) leukemia): > 75.2 µM; TGI (CAKI-1 renal): > 100 µM; TGI (DMS 114 small cell lung): > 100 µM; TGI (OVCAR-3 ovarian): > 100 µM; TGI (CCRF-CEM leukemia): > 100 µM; TGI (UACC-257 melanoma): > 100 µM; TGI (NCI-H522 lung): > 81.2 µM; TGI (SNB-78 CNS): > 100 µM; TGI (HCT-116 colon): > 100 µM; TGI (RPMI-8226 leukemia): > 100 µM; TGI (SK-MEL-2 melanoma): > 100 µM; TGI (COLO 205 colon): > 100 µM; TGI (UO-31 renal): > 100 µM; TGI (HOP-92 NSCLC): > 96.1 µM; TGI (MALME-3M melanoma): > 100 µM; TGI (RXF 393 renal): > 100 µM; TGI (SN12C renal): > 100 µM; TGI (P388 leukemia): 81.8 µM; TGI (SK-MEL-28 melanoma): > 100 µM; TGI (SW-620 colon): > 100 µM; TGI (A549 NSCLC): > 100 µM; TGI (HCT-15 colon): > 100 µM; TGI (OVCAR-8 ovarian): > 100 µM; TGI (SF-539 CNS): > 100 µM; TGI (DLD-1 colon): > 100 µM; TGI (SF-295 CNS): > 100 µM
